Data as given in paper PMC3651692 (Bioorganic & medicinal chemistry letters, 2013).

Experiments:
Format in all cases: binding
[1] = target: κ-opioid receptor (KOR) (Homo sapiens, UniProt P41145)
[2] = target: δ-opioid receptor (DOR) (Homo sapiens, UniProt P41143)
[3] = target: μ-opioid receptor (MOR) (Homo sapiens, UniProt P35372)
μ-opioid receptor (MOR), sequence (P35372 whole entry, species assumed): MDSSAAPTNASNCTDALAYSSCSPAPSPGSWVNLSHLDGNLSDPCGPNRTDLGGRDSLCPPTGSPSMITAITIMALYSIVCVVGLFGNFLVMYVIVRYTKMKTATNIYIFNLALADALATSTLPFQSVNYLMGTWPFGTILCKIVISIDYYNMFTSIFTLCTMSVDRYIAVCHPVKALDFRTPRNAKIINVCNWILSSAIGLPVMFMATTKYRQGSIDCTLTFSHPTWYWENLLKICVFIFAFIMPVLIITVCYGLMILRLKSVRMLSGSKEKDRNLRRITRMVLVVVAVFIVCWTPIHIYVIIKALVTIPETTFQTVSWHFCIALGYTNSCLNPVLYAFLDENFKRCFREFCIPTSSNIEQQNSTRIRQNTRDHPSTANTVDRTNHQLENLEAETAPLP

κ-opioid receptor (KOR), sequence (P41145 whole entry): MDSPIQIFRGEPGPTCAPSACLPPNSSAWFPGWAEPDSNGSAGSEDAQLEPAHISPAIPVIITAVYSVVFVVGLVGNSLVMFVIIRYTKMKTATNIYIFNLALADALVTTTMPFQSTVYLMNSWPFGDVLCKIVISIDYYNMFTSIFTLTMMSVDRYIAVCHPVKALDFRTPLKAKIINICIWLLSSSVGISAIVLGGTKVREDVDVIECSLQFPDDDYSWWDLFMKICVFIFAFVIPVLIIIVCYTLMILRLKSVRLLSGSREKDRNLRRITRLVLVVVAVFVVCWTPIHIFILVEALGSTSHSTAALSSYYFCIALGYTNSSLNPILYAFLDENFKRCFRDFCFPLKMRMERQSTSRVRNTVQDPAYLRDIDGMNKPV
δ-opioid receptor (DOR), sequence (P41143 whole entry): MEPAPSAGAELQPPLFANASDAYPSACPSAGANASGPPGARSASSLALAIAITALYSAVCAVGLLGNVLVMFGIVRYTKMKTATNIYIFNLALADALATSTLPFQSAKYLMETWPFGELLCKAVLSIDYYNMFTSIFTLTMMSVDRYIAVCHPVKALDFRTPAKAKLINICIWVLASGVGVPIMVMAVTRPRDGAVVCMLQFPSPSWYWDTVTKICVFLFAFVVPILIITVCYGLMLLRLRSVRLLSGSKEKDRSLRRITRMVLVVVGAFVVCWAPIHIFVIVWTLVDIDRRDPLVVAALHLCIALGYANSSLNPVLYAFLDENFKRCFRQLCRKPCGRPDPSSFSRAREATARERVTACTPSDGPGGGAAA

Row | Compound | Selectivity DOR/KOR [1] | Fold reduction of KOR affinity compared to 1 [1] | Selectivity MOR/KOR [1] | Affinities Ki± SD DOR [2] | Affinities Ki± SD MOR [3] | Affinities Ki± SD KOR [1]
1 | COC(=O)[C@@H]1C[C@H](OC(=O)CCCC(=O)O)C(=O)[C@H]2[C@@]1(C)CC[C@H]1C(=O)O[C@H](c3ccoc3)C[C@]21C [Compound 12] | >38 | – | – | – | – | –
2 | COC(=O)/C=C/C(=O)O[C@H]1C[C@@H](C(=O)OC)[C@]2(C)CC[C@H]3C(=O)O[C@H](c4ccoc4)C[C@]3(C)[C@H]2C1=O [Compound 14] | >256 | 6 fold | – | – | – | –
3 | COC(=O)CCC(=O)O[C@H]1C[C@@H](C(=O)OC)[C@]2(C)CC[C@H]3C(=O)O[C@H](c4ccoc4)C[C@]3(C)[C@H]2C1=O [Compound 7] | >277 | 6 fold | >277 | – | – | –
4 | COC(=O)[C@@H]1C[C@H](OC(=O)c2ccccc2C(=O)O)C(=O)[C@H]2[C@@]1(C)CC[C@H]1C(=O)O[C@H](c3ccoc3)C[C@]21C [Compound 16] | >4 | – | >4 | – | – | –
5 | COC(=O)CCCC(=O)O[C@H]1C[C@@H](C(=O)OC)[C@]2(C)CC[C@H]3C(=O)O[C@H](c4ccoc4)C[C@]3(C)[C@H]2C1=O [Compound 9] | >33 | 49 fold | – | – | – | –
6 | COC(=O)[C@@H]1C[C@H](OC(=O)CC(=O)OC(C)(C)C)C(=O)[C@H]2[C@@]1(C)CC[C@H]1C(=O)O[C@H](c3ccoc3)C[C@]21C [Compound 6] | >67 | 24 fold | >67 | – | – | –
7 | COC(=O)CCCCC(=O)O[C@H]1C[C@@H](C(=O)OC)[C@]2(C)CC[C@H]3C(=O)O[C@H](c4ccoc4)C[C@]3(C)[C@H]2C1=O [Compound 10] | >17 | – | >17 | – | – | –
8 | COC(=O)[C@@H]1C[C@H](OC(=O)/C=C\C(=O)O)C(=O)[C@H]2[C@@]1(C)CC[C@H]1C(=O)O[C@H](c3ccoc3)C[C@]21C [Compound 13] | – | – | – | no affinity | no affinity | no affinity
9 | COC(=O)CC(=O)O[C@H]1C[C@@H](C(=O)OC)[C@]2(C)CC[C@H]3C(=O)O[C@H](c4ccoc4)C[C@]3(C)[C@H]2C1=O [Compound 4] | – | – | >5000 | – | – | –
10 | CCOC(=O)CCC(=O)O[C@H]1C[C@@H](C(=O)OC)[C@]2(C)CC[C@H]3C(=O)O[C@H](c4ccoc4)C[C@]3(C)[C@H]2C1=O [Compound 8] | >23 | 70 fold | >23 | – | – | –
11 | CCOC(=O)CC(=O)O[C@H]1C[C@@H](C(=O)OC)[C@]2(C)CC[C@H]3C(=O)O[C@H](c4ccoc4)C[C@]3(C)[C@H]2C1=O [Compound 5] | >476 | 3 fold | >476 | – | – | –
12 | CCOC(=O)/C=C/C(=O)O[C@H]1C[C@@H](C(=O)OC)[C@]2(C)CC[C@H]3C(=O)O[C@H](c4ccoc4)C[C@]3(C)[C@H]2C1=O [Compound 15] | >23 | – | – | – | – | –
